This is an account of results in patent US9663569B2, “Use of blocking agents of bone morphogenic protein (BMP) signalling for the treatment of neuroinflammatory and neurodegenerative diseases” (THE MEDICAL RESEARCH, INFRASTRUCTURE, AND HEALTH SERVICES …, priority 2012, dated 2017).

In this test the test system is SJL female mice with induced RR-EAE. Description: RR-EAE clinical score in SJL mice after systemic treatment. The class given is in vivo. How it is done:
The SJL/EAE mice model was chosen based on its relapsing and remitting (RR) pattern, which resembles the pattern of RR-multiple sclerosis in humans. RR-EAE was induced in SJL female mice (8 weeks old, Harlan Laboratories, Ltd. Israel) by subcutaneous immunization (designated day 0) with proteolipid protein peptide (PLP139-151, BioSight Ltd.) at a concentration of 100 μg/mouse.
In both models the peptides used for EAE induction were emulsified in an equal volume of Complete Freund's Adjuvant (CFA, DIFCO), containing 500 μg Mycobacterium tuberculosis H37RA (MT, DIFCO). In addition, the mice received two consecutive intraperitoneal injections of 300 ng Pertussis toxin (PTX, Sigma-Aldrich) in 0.2 ml PBS. The first injection was given at day 0 and a second injection was given 48 h afterwards.
Day 9 post induction of EAE was chosen for administration of anti-BMP neutralizing antibodies, in order to affect both the onset and the severity of EAE. […], emulsified in 200 μl PBS: anti-human BMP-2/4 (an antibody which recognizes both BMP-2 and BMP-4), anti-human BMP-5, and anti-human BMP-7 mAbs (all anti-BMP neutralizing monoclonal antibodies were obtained from R&D systems). Commercial anti-human BMPs were used based on the high homology (>95%) between human and mouse BMPs. […] Since the blood brain barrier (BBB) is disrupted in the EAE mice by the presence of pertussis toxin, the injected antibodies are present systemically in the blood stream but are also transmitted to the CNS through the disrupted BBB.
Mice treated with corresponding isotype controls (IgG1 and IgG2β, termed herein “IC”) (R&D systems) as well as mice treated with the vehicle PBS alone (termed herein “vehicle”) were used as negative controls (n=12 in each group).
Mice were monitored for symptoms of RR-EAE and were scored as follows: “0” for no disease; “1”, tail paralysis; “2”, hind limb weakness; “3”, hind limb paralysis; “4”, hind limb and forelimb paralysis; “5”, moribund.
[…] Animals were daily monitored for EAE symptoms and scored as described above. […]

Where [1] appears, read: 10 mg/kg i.p. every 12 hr for 5 days from day 9 post immunization.

In the case of `c1cc(-c2cnn3cc(-c4ccc(OCCN5CCCCC5)cc4)cnc23)ccn1` [dorsomorphin, 6-[4-(2-Piperidin-1-yl-ethoxy)phenyl]-3-pyridin-4-yl-pyrazolo[1,5-a]pyrimidine], under setting [1], the “form of the disease during treatment” value is reported as “very mild form of the disease” and the “onset of the first relapse delayed to day” value is 16 days. Further, the “mice exhibiting the severe forms of the disease (score 2-5)” value (10 mg/kg i.p., day 9 to day 13, until day 16 post immunization) was “no mice”.
